In patent publication US11541065B2, “Compositions and methods for treating brain injury” (UNM RAINFOREST INNOVATIONS, priority 2018, dated 2023) one finds concentration, cPLA2 activity and PGE2 release data, which are given here for one compound.

The nature of data set [1]: Total plasma homocysteine after osmotic pump implantation, rats (HPLC). In kind it is in vivo. The settings on record: male, Wistar, rat, sc, 200 mM solution (2 ml osmotic pump, flow rate 10 μl/hr), subcutaneous osmotic pump with 200 mM L-homocysteine. As to the method:
L-homocysteine (200 mM) was freshly prepared by alkali hydrolysis of L-homocysteine thiolactone hydrochloride followed by neutralization, and maintained in 0.02 mM of N-Tris(hydroxymethyl)methyl-2-aminoethanesulfonic acid buffer pH 7.4 as previously described (Poddar et al., 2001, Circulation, 103:2717-2723). Osmotic pumps (Alzet, 2ML1, flow rate 10 μl/hr; Durect Corp., Cupertino, Calif.) containing either 2 ml of freshly prepared 200 mM L-homocysteine (for hyperhomocysteinemia) or normal saline (for control) were surgically implanted subcutaneously on the back and posterior to the scapulae of male Wistar rats under anesthesia (2% isoflurane in medical grade oxygen). The incision was closed after implantation and the rats were allowed to recover in their cage. For both WT and GluN2A-KO mice, osmotic pumps (Alzet, 2001, flow rate 1 μl/hr; Durect Corp., Cupertino, Calif.) containing either 200 μl of freshly prepared 200 mM L-homocysteine (for hyperhomocysteinemia) or normal saline (for control) were implanted similarly.
Blood was obtained from rats (retro-orbital) and mice (cardiac puncture) under anesthesia with 2% isoflurane in medical grade oxygen, before installation of osmotic pumps (0 day) and at various time points after installation of osmotic pumps (rats: day 3, day 5, and day 7; mice: day 3 and day 5). Blood was collected in standardized VACUTAINER venous blood collection EDTA-tubes (ThermoFisher Scientific, Inc., Waltham, Mass.) and centrifuged at 3,500 rpm for 15 minutes. The plasma obtained was analyzed for total plasma homocysteine levels using high performance liquid chromatography with post-column fluorescence detection as previously described (Gilfix et al., 1997, Clin Chem 43:687-688; Jacobsen et al., 1994, Clin Chem 40:873-881; Miller et al., 2013, Am J Clin Nutr 97:827-834).

Another data set concerns cPLA2. In words: cPLA2 activity in WT and GluN2A-KO mouse neuronal lysates. In kind it is cell-based, mice. Particulars: L-homocysteine 50 μM, four hours. As to the method:
(§1) Neuron cultures were treated with or without L-homocysteine in the presence or absence of pharmacological inhibitors for the time period specified in each experiment. The medium was collected from each experimental plate and centrifuged at 1000 rpm for five minutes to remove cellular debris. Equal amounts (100 μl) of the supernatant from each sample were used to determine the amount of PGE2 using the PGE2 enzyme immunoassay kit according to the manufacturer's instructions. For measurement of cPLA2 activity, the neuronal cells from the above treated conditions were harvested in ice-cold Tris-buffered saline (pH7.4) containing sodium pyrophosphate as phosphatase inhibitor, sonicated three times with five-second bursts and two minutes on ice between intervals. The lysed cell suspensions were centrifuged at 10,000 rpm for 10 minutes and the supernatant removed. Equal amounts of protein from the supernatant (assessed using BCA protein estimation kit) were estimated for activity of cPLA2 using cPLA2 activity assay kit according to the manufacturer's protocol.
For measurement of cPLA2 activity and MCP-1 levels in cell lysates, neuronal lysates were prepared by harvesting neurons in ice-cold Tris-buffered saline (pH 7.4) containing phosphatase inhibitor, sonicated three times in five-second bursts and placed on ice (two minutes) between each burst of sonication. […]

A further data set relates to PGE2. In words: PGE2 release from WT and GluN2A-KO mouse neuronal cultures. The class given is cell-based, mice. The settings on record: homocysteine 50 μM, four hours. As to the method: as §1
For measurement of PGE2 levels and MCP-1 levels released from neurons, culture medium was collected from each experimental plate and centrifuged at 1000 rpm for five minutes to remove cellular debris. […]

`N[C@@H](CCS)C(=O)O` [L-homocysteine]: in data set [1] (day 3, basal 8.8±0.76 μM, read-out: total plasma homocysteine level), the concentration at 3 day was determined as 23.2 ± 0.52 µM. The concentration at 5 day in data set [1] (day 5, read-out: total plasma homocysteine level) is 23.6 ± 0.57 µM. For the same compound, in data set [1] (day 7, read-out: total plasma homocysteine level), the concentration at 7 day amounted to 20.5 ± 0.88 µM. Moreover, the cPLA2 activity entry is “cPLA2 activity remain unchanged” with cPLA2 (neurons from GluN2A-KO mice) and “cPLA2 activity increase significantly” in the data set on cPLA2 (neurons from WT mice). The PGE2 release entry is “fails to induce PGE2 release” in the data set on PGE2 (GluN2A-KO mice cultures) and “significantly increases PGE2 release” in the data set on PGE2 (WT mice cultures).
